Marks after values point to notes of the source that are not given here. Non-standard residues stand in square brackets, D forms with d. No end group written: not given here. pS = N[C@@H](COP(=O)(O)O)C(=O)O
What was measured:
[1] = test system: Human corneal epithelial (HCE) cells; assay: WST-1 cell viability of HCE cells exposed to benzalkonium chloride (BAK); type: cell-based; details: BAK-treated HCE cells co-treated with histatin; FIG. 5
Method: Experiments were performed in triplicate. *<0.05, **<0.01. Bar represents SEM.
To determine whether histatins could improve symptoms of dry eye disease, cell viability assays were carried out in the presence of the toxic preservative benzalkonium chloride (BAK)(Yang, et al. (2017) Int. J. Mol. Sci. 18(3):509). Human corneal epithelial (HCE) cells were cultivated under standard conditions and viability was assessed using WST-1 reagent, a tetrazolium salt that is reduced to a red formazan dye by the mitochondrial dehydrogenases of metabolically active cells (Bartok, et al. (2015) EXCLI J. 14:123-132).

[2] = test system: dry eye disease murine model (BAK exposure); assay: Murine model of dry eye disease (benzalkonium chloride exposure), NEI score; type: in vivo; details: twice a day topical 80 μM, by 7 days, versus vehicle control (BSS); FIG. 6
Method: Results are based upon the National Eye Institute/Industry (NEI) grading scale (Lemp (1995) CLAO J. 21:221-232) in animals treated with H5 or Balanced Salt Solution (BSS). All experiments were performed in triplicate. *<0.05, **<0.01. Bar represents SEM.

IL6 = IL6 expression induced by BAK application to HCE cells; type: cell-based, Human; details: BAK-treated HCE cells, histatin co-treatment
IL8 = IL8 expression induced by BAK application to HCE cells; type: cell-based, Human; details: BAK-treated HCE cells, histatin co-treatment
TNFα = TNFα expression induced by BAK application to HCE cells; type: cell-based, Human; details: BAK-treated HCE cells, histatin co-treatment
human corneal epithelia = details: Shah, et al. (2017) PLoS One 12(5):e0178030; cited from earlier work

**Q.** Which “HCE viability (WST-1)” value [1] does the source give for “Histatin 5 (DSHAKRHHGYKRKFHEKHHSHRGY) [Histatin H5]” here?
**A.** The value was “improved”.

**Q.** What about the “standardized dry eye disease score (NEI score)” value [2] of the same substance?
**A.** The value was “reduced standardized dry eye disease score (NEI score) in a statistically significant manner”.

**Q.** And the “Decrease in cytokine expression IL6 mRNA” value (IL6)?
**A.** Its value is 45%*.

**Q.** What about the “Decrease in cytokine expression IL6 protein” value (IL6) of the same substance?
**A.** Its value is 45%.

**Q.** And the “Decrease in cytokine expression IL8 mRNA” value (IL8)?
**A.** Its value is 46%*.

**Q.** What about the “Decrease in cytokine expression TNFα protein” value (TNFα) of the same substance?
**A.** The value was 32%**.

**Q.** Which “migration of human corneal epithelia” value (human corneal epithelia) does the source give for “Histatin-1 (D[pS]HEKRHHGYRRKFHEKHHSHREFPFYGDYGSNYLYDN) [Histatin H1]” here?
**A.** Its value is “promote migration”.

**Q.** And the “HCE viability (WST-1)” value [1]?
**A.** The value was “improved”.

**Q.** What about the “Decrease in cytokine expression IL6 mRNA” value (IL6) of the same substance?
**A.** Its value is 82%**.

**Q.** What about the “Decrease in cytokine expression IL6 protein” value (IL6) of the same substance?
**A.** The value was 48%*.

**Q.** What about the “Decrease in cytokine expression IL8 mRNA” value (IL8) of the same substance?
**A.** The value was 86%**.

**Q.** And the “Decrease in cytokine expression TNFα protein” value (TNFα)?
**A.** Its value is 12%.

From patent US20210364534A1, “METHODS OF USING HISTATIN FOR DIAGNOSING AND TREATING A DRY EYE DISEASE OR OTHER OCULAR DISEASES” (THE BOARD OF TRUSTEES OF THE UNIVERSITY OF ILLINOIS, priority 2018, published 2021)
